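Tested at 5 concentrations; 48 h exposure; 96-well plates; endpoints linearly interpolated, else capped at highest concentration. GI50 = concentration required for 50% inhibition of growth.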 Activity calls are given as the source filed them. No stated cut-off is given here; in the data, active = GI50 up to about 1.1 µM and inactive = higher. Starred links: 1 amine or outer side, 2 acyl side, 3 side chain; linkers in the order of their positions; H or OH if unused. Non-standard residues stand in square brackets, D forms with d. Residues, ends and D or L forms follow the SMILES beside them. X4 = C[C@H](N[*:1])C(=O)C(C)(C)C(=O)[*:2]; Hmpa(2S,3S) = CC[C@H](C)[C@H](O)C(=O)O; NMeY = CN[C@@H](Cc1ccc(O)cc1)C(=O)O; NMeL = CN[C@@H](CC(C)C)C(=O)O; NMeV = CN[C@H](C(=O)O)C(C)C; βAla = NCCC(=O)O
Experiments:
Experiment in all cases: inhibition of tumour cell growth, NCI panel, 48 h
786-0 = system: 786-0
A549 = system: A549
BT-549 = system: BT-549
EKVX = system: EKVX
HCC 2998 = system: HCC 2998
Hs-578T = system: Hs-578T
MDA-MB-435 = system: MDA-MB-435
MDA-N = system: MDA-N
MOLT-4 = system: MOLT-4
NCI-H226 = system: NCI-H226
NCI-H23 = system: NCI-H23
NCI-H460 = system: NCI-H460
OVCAR-4 = system: OVCAR-4
SF-268 = system: SF-268
SK-MEL-28 = system: SK-MEL-28
SK-MEL-2 = system: SK-MEL-2
SK-MEL-5 = system: SK-MEL-5
SK-OV-3 = system: SK-OV-3
SNB-75 = system: SNB-75
TK-10 = system: TK-10

Compound | GI50 (786-0) | GI50 (A549) | GI50 (BT-549) | GI50 (EKVX) | GI50 (HCC 2998) | GI50 (Hs-578T) | GI50 (MDA-MB-435) | GI50 (MDA-N) | GI50 (MOLT-4) | GI50 (NCI-H226) | GI50 (NCI-H23) | GI50 (NCI-H460) | GI50 (OVCAR-4) | GI50 (SF-268) | GI50 (SK-MEL-28) | GI50 (SK-MEL-2) | GI50 (SK-MEL-5) | GI50 (SK-OV-3) | GI50 (SNB-75) | GI50 (TK-10)
C1C2CC3CC1CC(Nc1nc(NC45CC6CC(CC(C6)C4)C5)nc(NC45CC6CC(CC(C6)C4)C5)n1)(C2)C3 | > 20.8 µM (inactive) | > 53 µM (inactive) | > 68.2 µM (inactive) | > 43.5 µM (inactive) | 72.1 µM (inactive) | 43.4 µM (inactive) | > 56.4 µM (inactive) | 74.3 µM (inactive) | 57.3 µM (inactive) | > 100 µM (inactive) | > 43.9 µM (inactive) | 66.4 µM (inactive) | > 83 µM (inactive) | > 100 µM (inactive) | > 31.1 µM (inactive) | > 70 µM (inactive) | 14.3 µM (inactive) | > 100 µM (inactive) | 16.9 µM (inactive) | > 60 µM (inactive)
COc1ccc(/N=N/C(=O)NC(CC(C)C)C(=O)NCC(=O)O)cc1 (configuration not stated) | > 100 µM (inactive) | 3.29 µM (inactive) | > 38.7 µM (inactive) | 43.4 µM (inactive) | 8.97 µM (inactive) | 89.3 µM (inactive) | 1.5 µM (inactive) | 26.6 µM (inactive) | 1.83 µM (inactive) | > 41 µM (inactive) | 57.3 µM (inactive) | 6.65 µM (inactive) | > 51.5 µM (inactive) | > 43.8 µM (inactive) | 57.7 µM (inactive) | > 18.4 µM (inactive) | 3.79 µM (inactive) | > 100 µM (inactive) | 89.5 µM (inactive) | 25.3 µM (inactive)
C=C1C(=O)O[C@H]2[C@H](OC(C)=O)[C@@H](C)CCC/C(C)=C/CC[C@@]3(C)O[C@@H]3C[C@@H]12 | 1.6 µM (inactive) | 7.35 µM (inactive) | 2.94 µM (inactive) | 3.42 µM (inactive) | 5.27 µM (inactive) | 3.32 µM (inactive) | 3.24 µM (inactive) | 2.94 µM (inactive) | 2.6 µM (inactive) | 1.5 µM (inactive) | 4.04 µM (inactive) | 5.26 µM (inactive) | 3.55 µM (inactive) | 5.62 µM (inactive) | 4.72 µM (inactive) | 6.01 µM (inactive) | 4.19 µM (inactive) | 15.6 µM (inactive) | 6.21 µM (inactive) | 2.13 µM (inactive)
Brc1ccc2[nH]cc(-c3nc(-c4c[nH]c5ccccc45)cs3)c2c1 | 2.86 µM (inactive) | 3.24 µM (inactive) | 7.52 µM (inactive) | 2.46 µM (inactive) | 2.3 µM (inactive) | 5.86 µM (inactive) | 3.88 µM (inactive) | 2.91 µM (inactive) | 2.11 µM (inactive) | 2.59 µM (inactive) | 2.47 µM (inactive) | 2.06 µM (inactive) | 6.03 µM (inactive) | 3 µM (inactive) | 5.81 µM (inactive) | 2.82 µM (inactive) | 1.6 µM (inactive) | 8.13 µM (inactive) | 10.4 µM (inactive) | 3.56 µM (inactive)
O=c1c2sc(=S)n(-c3ccc(F)cc3)c2ncn1/N=C/c1ccc(F)cc1F | 17.2 µM (inactive) | 46 µM (inactive) | 15.4 µM (inactive) | 16.6 µM (inactive) | 31 µM (inactive) | 29.1 µM (inactive) | 83.9 µM (inactive) | > 100 µM (inactive) | – | 24.4 µM (inactive) | 33.4 µM (inactive) | 39.2 µM (inactive) | 18.9 µM (inactive) | 18.7 µM (inactive) | 29.8 µM (inactive) | 25.4 µM (inactive) | 58.1 µM (inactive) | 25.4 µM (inactive) | 16 µM (inactive) | 18.1 µM (inactive)
COc1cc(C(c2c(O)c3ccccc3oc2=O)c2c(O)c3ccccc3oc2=O)ccc1O | 20.2 µM (inactive) | 59.7 µM (inactive) | 19.1 µM (inactive) | 27.9 µM (inactive) | 18.9 µM (inactive) | 40.4 µM (inactive) | 33 µM (inactive) | 19.9 µM (inactive) | 21.1 µM (inactive) | 50.4 µM (inactive) | 39 µM (inactive) | 20.9 µM (inactive) | 49.1 µM (inactive) | 21.5 µM (inactive) | 16.7 µM (inactive) | 25.2 µM (inactive) | 15.7 µM (inactive) | > 100 µM (inactive) | 20.7 µM (inactive) | 20.3 µM (inactive)
CCOc1cccc(/C=N/N=C2\C(=O)Nc3c(Cl)cc(Cl)cc32)c1O | 74.6 µM (inactive) | > 100 µM (inactive) | 39.6 µM (inactive) | 5.97 µM (inactive) | 85.7 µM (inactive) | > 100 µM (inactive) | 44.8 µM (inactive) | 45.7 µM (inactive) | 28.4 µM (inactive) | > 100 µM (inactive) | 50.1 µM (inactive) | 37 µM (inactive) | 62.8 µM (inactive) | – | 71.8 µM (inactive) | 83.8 µM (inactive) | 64.4 µM (inactive) | > 100 µM (inactive) | 40.9 µM (inactive) | > 100 µM (inactive)
O=C1Nc2ccccc2/C1=N/Nc1ccccc1[N+](=O)[O-] | 14.5 µM (inactive) | 34.4 µM (inactive) | 49.1 µM (inactive) | 0.706 µM (active) | 44.4 µM (inactive) | 29.2 µM (inactive) | > 100 µM (inactive) | > 100 µM (inactive) | 51.4 µM (inactive) | 1.67 µM (inactive) | 16.3 µM (inactive) | 19.9 µM (inactive) | 25.5 µM (inactive) | 10 µM (inactive) | 75.9 µM (inactive) | > 100 µM (inactive) | 40.9 µM (inactive) | 17.1 µM (inactive) | 16.5 µM (inactive) | 69.2 µM (inactive)
COc1ccc(/C=C2\CC3C4CC=C5C[C@@H](N6CCCC6)CC[C@]5(C)C4CC[C@]3(C)[C@H]2O)cc1OC (some centres not stated) | 3.77 µM (inactive) | 9.46 µM (inactive) | 8.87 µM (inactive) | 8.79 µM (inactive) | 5.52 µM (inactive) | 11 µM (inactive) | 6.7 µM (inactive) | 7.55 µM (inactive) | 8.39 µM (inactive) | 10.5 µM (inactive) | 9.04 µM (inactive) | 9.16 µM (inactive) | 7.67 µM (inactive) | 10.4 µM (inactive) | 8.51 µM (inactive) | 7.43 µM (inactive) | 7.26 µM (inactive) | 8.81 µM (inactive) | 12.2 µM (inactive) | 10.8 µM (inactive)
CC[C@H](C)[C@@H]1OC(=O)CCNC(=O)[C@@H](C)NC(=O)C(C)(C)C(=O)[C@H](C)NC(=O)[C@H](Cc2ccc(OC)cc2)N(C)C(=O)[C@H](C(C)C)N(C)C(=O)CNC(=O)[C@H](CC(C)C)N(C)C(=O)CNC1=O (cyclo(G[NMeL]G[NMeV][NMeY](Me)[X4][dA][βAla][Hmpa(2S,3S)])) | 0.676 µM (active) | 0.37 µM (active) | 2.81 µM (inactive) | 3.24 µM (inactive) | 0.0715 µM (active) | 0.916 µM (active) | 0.953 µM (active) | 0.299 µM (active) | 2.4 µM (inactive) | 5.92 µM (inactive) | 0.262 µM (active) | 0.0615 µM (active) | 0.284 µM (active) | 0.254 µM (active) | 0.15 µM (active) | 0.222 µM (active) | 0.0879 µM (active) | 0.294 µM (active) | 0.348 µM (active) | 1.67 µM (inactive)
C[n+]1c2ccccc2c(C(=O)Nc2ccc(S(=O)(=O)Nc3ccnn3-c3ccccc3)cc2)c2ccccc21 | > 100 µM (inactive) | > 100 µM (inactive) | > 100 µM (inactive) | > 100 µM (inactive) | > 100 µM (inactive) | > 100 µM (inactive) | > 100 µM (inactive) | > 100 µM (inactive) | > 100 µM (inactive) | > 100 µM (inactive) | > 100 µM (inactive) | > 100 µM (inactive) | > 100 µM (inactive) | > 100 µM (inactive) | > 100 µM (inactive) | > 100 µM (inactive) | 69.2 µM (inactive) | > 100 µM (inactive) | > 100 µM (inactive) | > 100 µM (inactive)
COc1cc(C2C3=C(COC3=O)Oc3cc4c(cc32)OCO4)ccc1OC(C)=O (configuration not stated) | 0.521 µM (active) | 0.957 µM (active) | 0.222 µM (active) | 1.21 µM (inactive) | 1.01 µM (active) | 0.112 µM (active) | 0.0263 µM (active) | 0.0467 µM (active) | 0.536 µM (active) | 5.14 µM (inactive) | 0.67 µM (active) | 0.45 µM (active) | 1.41 µM (inactive) | 1.09 µM (active) | 10.8 µM (inactive) | 0.684 µM (active) | 0.106 µM (active) | 0.334 µM (active) | 0.168 µM (active) | > 100 µM (inactive)
CC(=O)C1C(=O)C(C(C)=O)C2C3C=CC(C3)C12 (configuration not stated) | > 100 µM (inactive) | > 100 µM (inactive) | > 100 µM (inactive) | – | > 100 µM (inactive) | > 100 µM (inactive) | > 100 µM (inactive) | > 100 µM (inactive) | > 100 µM (inactive) | > 100 µM (inactive) | > 100 µM (inactive) | > 100 µM (inactive) | > 100 µM (inactive) | > 100 µM (inactive) | > 100 µM (inactive) | > 100 µM (inactive) | > 100 µM (inactive) | > 100 µM (inactive) | > 100 µM (inactive) | > 100 µM (inactive)
